Data as given in article PMC12586182 (Frontiers in Oncology, 2025).

How the values were obtained:
FRK = biological target: T1, FRK (Homo sapiens, UniProt P42685); assay: Kinase panel profiling at 1 µmol/L (mobility shift assay, Carna); assay type: biochemical; conditions: 1 µmol/L of BTK inhibitor
T1 construct: purchased Carna Biosciences

KIT = biological target: T2, KIT (Homo sapiens, UniProt P10721); assay: as above; assay type: biochemical; conditions: 1 µmol/L of BTK inhibitor
T2 construct: purchased Carna Biosciences

MUSK = biological target: T3, MUSK (Homo sapiens, UniProt O15146); assay: as above; assay type: biochemical; conditions: 1 µmol/L of BTK inhibitor
T3 construct: purchased Carna Biosciences
T3 sequence (O15146 24-869): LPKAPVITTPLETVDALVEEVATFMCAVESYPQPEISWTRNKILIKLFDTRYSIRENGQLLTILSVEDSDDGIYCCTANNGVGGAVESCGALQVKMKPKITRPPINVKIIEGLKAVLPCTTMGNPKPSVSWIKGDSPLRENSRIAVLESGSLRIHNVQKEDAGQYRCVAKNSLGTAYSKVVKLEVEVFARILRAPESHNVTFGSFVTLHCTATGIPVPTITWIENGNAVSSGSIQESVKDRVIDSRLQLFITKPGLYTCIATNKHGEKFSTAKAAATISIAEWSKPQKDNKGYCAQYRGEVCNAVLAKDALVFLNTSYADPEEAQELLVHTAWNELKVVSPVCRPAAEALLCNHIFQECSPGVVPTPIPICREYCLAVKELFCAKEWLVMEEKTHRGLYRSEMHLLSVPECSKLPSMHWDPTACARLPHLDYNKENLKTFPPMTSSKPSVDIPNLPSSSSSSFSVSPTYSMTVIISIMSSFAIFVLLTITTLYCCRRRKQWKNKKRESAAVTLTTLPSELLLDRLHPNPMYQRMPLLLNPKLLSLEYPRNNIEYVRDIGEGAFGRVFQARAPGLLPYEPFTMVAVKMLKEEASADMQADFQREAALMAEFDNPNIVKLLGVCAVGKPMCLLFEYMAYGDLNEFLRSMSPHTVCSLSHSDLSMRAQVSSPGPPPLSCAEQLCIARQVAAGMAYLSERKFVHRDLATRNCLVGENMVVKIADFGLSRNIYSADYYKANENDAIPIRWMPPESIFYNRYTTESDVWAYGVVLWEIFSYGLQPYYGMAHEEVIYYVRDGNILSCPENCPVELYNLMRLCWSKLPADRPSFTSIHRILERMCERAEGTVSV

TRKA = biological target: T4, TRKA (Homo sapiens, UniProt P04629); assay: as above; assay type: biochemical; conditions: 1 µmol/L of BTK inhibitor
T4 construct: purchased Carna Biosciences

HIPK3 = biological target: T5, HIPK3 (Homo sapiens, UniProt Q9H422); assay: as above; assay type: biochemical; conditions: 1 µmol/L of BTK inhibitor
T5 construct: purchased Carna Biosciences

IKKα = biological target: T6, IKKα (Homo sapiens, UniProt O15111); assay: as above; assay type: biochemical; conditions: 1 µmol/L of BTK inhibitor
T6 construct: purchased Carna Biosciences
T6 sequence (O15111 1-745): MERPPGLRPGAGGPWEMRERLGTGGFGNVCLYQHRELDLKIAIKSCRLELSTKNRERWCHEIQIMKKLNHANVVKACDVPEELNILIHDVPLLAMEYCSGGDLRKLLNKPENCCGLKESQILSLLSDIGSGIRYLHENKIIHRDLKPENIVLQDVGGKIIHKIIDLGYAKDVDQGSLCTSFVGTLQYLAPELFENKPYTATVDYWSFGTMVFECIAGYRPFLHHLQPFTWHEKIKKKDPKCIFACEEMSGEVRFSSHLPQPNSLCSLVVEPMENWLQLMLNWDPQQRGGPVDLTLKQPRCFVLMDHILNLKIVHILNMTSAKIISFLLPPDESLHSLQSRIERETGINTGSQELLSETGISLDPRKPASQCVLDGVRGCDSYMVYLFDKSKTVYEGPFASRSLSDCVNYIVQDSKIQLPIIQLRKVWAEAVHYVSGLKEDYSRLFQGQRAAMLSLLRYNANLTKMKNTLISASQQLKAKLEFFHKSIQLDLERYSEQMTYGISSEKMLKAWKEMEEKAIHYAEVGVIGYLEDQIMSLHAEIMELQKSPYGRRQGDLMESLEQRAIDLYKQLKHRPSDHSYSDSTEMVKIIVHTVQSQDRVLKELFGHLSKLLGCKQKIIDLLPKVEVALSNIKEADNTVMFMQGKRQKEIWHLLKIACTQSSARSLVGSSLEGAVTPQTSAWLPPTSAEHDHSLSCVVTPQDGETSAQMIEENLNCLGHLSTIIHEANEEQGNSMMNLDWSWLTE

NuaK2 = biological target: T7, NuaK2 (Homo sapiens, UniProt Q9H093); assay: as above; assay type: biochemical; conditions: 1 µmol/L of BTK inhibitor
T7 construct: purchased Carna Biosciences
T7 sequence (Q9H093 1-628): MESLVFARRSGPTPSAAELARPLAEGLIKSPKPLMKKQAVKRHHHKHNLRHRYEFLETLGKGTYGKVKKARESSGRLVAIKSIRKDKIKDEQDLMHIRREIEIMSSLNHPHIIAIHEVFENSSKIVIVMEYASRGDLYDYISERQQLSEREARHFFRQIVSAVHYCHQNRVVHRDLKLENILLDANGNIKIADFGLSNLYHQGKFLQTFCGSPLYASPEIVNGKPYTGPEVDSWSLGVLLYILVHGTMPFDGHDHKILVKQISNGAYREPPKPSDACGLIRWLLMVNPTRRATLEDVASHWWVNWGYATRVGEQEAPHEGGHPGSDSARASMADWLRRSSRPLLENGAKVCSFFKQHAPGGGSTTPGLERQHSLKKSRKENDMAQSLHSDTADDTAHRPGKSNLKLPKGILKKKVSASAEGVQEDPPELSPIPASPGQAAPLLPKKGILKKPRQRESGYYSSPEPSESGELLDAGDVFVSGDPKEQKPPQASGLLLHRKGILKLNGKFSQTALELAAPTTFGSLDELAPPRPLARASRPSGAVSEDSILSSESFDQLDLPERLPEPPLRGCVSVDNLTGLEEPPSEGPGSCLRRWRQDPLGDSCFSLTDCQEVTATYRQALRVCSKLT

PDGFRα = PDGFRα (Homo sapiens, UniProt P16234); assay: Kinase enzyme activity assay (mobility shift assay, Carna); conditions: for Percentage inhibition of kinase enzyme activity: PDGFRα, 1 µmol/L of BTK inhibitor
Sequence of PDGFRα (P16234 24-1089): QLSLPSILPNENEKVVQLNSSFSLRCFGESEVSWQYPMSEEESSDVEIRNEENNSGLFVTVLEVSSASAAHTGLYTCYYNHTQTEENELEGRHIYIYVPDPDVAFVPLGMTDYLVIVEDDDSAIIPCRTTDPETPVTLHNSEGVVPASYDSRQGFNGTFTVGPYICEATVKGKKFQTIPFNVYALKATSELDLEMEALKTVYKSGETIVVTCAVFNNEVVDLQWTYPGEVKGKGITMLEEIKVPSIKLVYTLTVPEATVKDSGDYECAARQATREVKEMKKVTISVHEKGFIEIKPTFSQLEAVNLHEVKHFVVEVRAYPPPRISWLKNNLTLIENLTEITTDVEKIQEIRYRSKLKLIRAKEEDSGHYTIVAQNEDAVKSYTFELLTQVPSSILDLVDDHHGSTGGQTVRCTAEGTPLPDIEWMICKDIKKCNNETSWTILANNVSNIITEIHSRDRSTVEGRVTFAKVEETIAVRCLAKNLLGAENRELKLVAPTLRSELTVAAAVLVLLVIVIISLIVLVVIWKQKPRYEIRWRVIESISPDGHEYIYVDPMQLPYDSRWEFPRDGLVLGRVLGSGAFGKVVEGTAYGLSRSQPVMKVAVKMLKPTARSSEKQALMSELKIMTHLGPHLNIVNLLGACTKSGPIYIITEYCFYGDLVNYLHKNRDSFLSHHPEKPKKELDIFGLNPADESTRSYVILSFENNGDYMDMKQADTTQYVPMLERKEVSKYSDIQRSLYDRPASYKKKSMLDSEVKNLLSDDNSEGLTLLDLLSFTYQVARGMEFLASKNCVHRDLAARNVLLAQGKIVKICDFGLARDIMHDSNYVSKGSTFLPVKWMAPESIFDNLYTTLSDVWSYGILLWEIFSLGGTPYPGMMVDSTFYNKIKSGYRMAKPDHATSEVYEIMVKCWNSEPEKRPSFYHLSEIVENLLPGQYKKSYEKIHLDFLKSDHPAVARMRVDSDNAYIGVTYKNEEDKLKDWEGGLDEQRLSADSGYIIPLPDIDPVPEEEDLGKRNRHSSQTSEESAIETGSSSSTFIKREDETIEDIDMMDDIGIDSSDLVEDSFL

T5 sequence (Q9H422 whole entry): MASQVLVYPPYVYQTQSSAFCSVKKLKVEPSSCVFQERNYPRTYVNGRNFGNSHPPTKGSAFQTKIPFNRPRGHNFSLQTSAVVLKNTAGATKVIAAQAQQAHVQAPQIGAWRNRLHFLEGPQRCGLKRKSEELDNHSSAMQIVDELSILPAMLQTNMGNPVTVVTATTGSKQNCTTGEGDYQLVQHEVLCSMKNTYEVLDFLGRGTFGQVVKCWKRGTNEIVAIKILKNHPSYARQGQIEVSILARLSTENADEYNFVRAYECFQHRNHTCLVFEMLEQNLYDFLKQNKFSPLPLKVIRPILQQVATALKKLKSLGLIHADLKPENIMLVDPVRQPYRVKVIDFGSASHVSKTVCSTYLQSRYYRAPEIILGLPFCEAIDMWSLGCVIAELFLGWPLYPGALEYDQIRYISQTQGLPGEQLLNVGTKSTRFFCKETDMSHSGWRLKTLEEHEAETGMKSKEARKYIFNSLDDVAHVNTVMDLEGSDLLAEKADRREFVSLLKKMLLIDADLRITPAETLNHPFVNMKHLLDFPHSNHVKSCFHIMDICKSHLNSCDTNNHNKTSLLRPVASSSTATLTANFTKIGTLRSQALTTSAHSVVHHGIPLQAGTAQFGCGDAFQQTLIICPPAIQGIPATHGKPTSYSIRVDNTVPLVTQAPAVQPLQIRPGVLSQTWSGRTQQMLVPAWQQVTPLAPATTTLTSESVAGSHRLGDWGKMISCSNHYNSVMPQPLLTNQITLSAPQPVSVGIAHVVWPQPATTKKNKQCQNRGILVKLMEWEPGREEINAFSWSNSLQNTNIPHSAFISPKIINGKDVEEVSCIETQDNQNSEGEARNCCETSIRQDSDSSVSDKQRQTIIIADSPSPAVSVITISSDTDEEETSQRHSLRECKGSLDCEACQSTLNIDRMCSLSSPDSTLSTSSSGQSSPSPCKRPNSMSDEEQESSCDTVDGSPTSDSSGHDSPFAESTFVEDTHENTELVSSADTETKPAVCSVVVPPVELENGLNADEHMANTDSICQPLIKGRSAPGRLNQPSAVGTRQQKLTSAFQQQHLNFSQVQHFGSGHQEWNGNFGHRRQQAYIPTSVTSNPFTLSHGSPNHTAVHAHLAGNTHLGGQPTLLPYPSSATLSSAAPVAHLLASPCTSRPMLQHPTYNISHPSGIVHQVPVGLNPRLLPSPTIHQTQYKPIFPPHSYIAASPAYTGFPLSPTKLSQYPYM
T2 sequence (P10721 26-976): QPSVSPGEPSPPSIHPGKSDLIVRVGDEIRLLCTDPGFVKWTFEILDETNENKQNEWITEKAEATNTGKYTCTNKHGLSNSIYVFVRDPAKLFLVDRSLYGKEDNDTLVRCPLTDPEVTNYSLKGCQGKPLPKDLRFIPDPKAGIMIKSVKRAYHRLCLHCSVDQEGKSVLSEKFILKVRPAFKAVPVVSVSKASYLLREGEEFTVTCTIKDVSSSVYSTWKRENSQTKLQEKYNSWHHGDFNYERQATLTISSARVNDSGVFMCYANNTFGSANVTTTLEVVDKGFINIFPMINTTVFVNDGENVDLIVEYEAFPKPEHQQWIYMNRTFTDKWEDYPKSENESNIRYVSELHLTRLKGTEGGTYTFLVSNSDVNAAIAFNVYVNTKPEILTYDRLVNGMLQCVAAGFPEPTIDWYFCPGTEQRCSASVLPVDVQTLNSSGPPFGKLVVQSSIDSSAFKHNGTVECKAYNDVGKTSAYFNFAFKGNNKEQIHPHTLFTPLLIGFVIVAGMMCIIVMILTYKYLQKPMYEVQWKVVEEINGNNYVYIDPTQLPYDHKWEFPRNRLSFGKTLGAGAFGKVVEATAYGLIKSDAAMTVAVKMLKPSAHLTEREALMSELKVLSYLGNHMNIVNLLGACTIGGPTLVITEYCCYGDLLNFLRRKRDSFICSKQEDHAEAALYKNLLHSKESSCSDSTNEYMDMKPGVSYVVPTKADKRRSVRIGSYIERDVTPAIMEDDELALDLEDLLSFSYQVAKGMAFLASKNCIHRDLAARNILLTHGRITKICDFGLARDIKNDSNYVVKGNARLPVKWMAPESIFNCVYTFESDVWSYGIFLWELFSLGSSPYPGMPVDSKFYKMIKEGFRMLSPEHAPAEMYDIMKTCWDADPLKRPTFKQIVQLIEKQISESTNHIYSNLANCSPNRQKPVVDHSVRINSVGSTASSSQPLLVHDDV
T1 sequence (P42685 whole entry): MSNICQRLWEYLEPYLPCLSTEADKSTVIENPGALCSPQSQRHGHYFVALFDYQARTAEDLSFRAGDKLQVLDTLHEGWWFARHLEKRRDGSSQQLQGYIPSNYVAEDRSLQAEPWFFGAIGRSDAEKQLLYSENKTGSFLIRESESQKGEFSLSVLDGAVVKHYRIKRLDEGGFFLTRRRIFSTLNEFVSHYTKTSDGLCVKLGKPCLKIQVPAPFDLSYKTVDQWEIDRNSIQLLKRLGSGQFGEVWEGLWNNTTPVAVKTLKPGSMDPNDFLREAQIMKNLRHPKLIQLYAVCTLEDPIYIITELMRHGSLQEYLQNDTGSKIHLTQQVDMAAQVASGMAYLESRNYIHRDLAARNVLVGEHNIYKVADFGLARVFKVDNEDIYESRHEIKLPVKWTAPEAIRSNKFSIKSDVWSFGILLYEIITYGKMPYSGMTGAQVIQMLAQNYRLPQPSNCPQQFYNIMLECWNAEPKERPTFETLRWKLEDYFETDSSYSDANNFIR
T4 sequence (P04629 33-796): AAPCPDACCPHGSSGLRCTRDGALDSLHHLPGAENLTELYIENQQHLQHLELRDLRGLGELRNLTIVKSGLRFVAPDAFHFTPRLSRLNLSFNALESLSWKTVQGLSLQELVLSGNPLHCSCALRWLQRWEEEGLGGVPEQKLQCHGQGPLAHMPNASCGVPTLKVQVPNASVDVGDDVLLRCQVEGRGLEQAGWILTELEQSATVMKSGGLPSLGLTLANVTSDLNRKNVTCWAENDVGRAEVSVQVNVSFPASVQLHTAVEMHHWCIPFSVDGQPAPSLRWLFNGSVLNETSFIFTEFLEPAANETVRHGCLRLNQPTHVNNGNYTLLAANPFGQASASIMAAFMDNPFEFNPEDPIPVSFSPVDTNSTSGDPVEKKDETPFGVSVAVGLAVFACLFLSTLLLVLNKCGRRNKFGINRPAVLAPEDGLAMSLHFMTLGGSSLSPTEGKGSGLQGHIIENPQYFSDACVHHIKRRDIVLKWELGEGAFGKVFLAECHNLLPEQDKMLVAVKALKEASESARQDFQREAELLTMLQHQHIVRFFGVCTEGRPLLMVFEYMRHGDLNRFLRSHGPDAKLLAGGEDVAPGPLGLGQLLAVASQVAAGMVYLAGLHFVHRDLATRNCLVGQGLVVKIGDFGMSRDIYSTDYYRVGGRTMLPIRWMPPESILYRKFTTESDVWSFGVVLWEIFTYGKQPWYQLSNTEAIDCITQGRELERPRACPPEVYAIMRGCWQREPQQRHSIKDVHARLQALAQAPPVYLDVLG

Row | Structure (SMILES) | Percentage inhibition of kinase enzyme activity (FRK) | Percentage inhibition of kinase enzyme activity (KIT) | Percentage inhibition of kinase enzyme activity (MUSK) | Percentage inhibition of kinase enzyme activity (TRKA) | Percentage inhibition of kinase enzyme activity (HIPK3) | Percentage inhibition of kinase enzyme activity (IKKα) | Percentage inhibition of kinase enzyme activity (NuaK2) | Percentage inhibition of kinase enzyme activity (PDGFRα) | IC50 (PDGFRα)
1 | CC#CC(=O)N1CCC[C@H]1c1nc(-c2ccc(C(=O)Nc3ccccn3)cc2)c2c(N)nccn12 [acalabrutinib] | 47.48% | 2.89% | -0.58% | 12.80% | -12.04% | -1.45% | 3.11% | 1.38% | 
2 | C=CC(=O)N1CCC([C@@H]2CCNc3c(C(N)=O)c(-c4ccc(Oc5ccccc5)cc4)nn32)CC1 [zanubrutinib] | 31.32% | -2.78% | 11.33% |  |  | -9.91% |  | 3.66% | 
3 | O=C(c1ccc(Oc2ccccc2)cc1Cl)c1c[nH]c2ncnc(N[C@@H]3CC[C@@H](CO)OC3)c12 [nemtabrutinib] | 98.79% | 78.81% | 100.11% | 99.52% | 5.34% | 1.80% | 24.70% | 88.08% | 0.0124 µM
4 | COc1ccc(F)cc1C(=O)NCc1ccc(-c2nn([C@@H](C)C(F)(F)F)c(N)c2C(N)=O)cc1 [pirtobrutinib] | 13.63% | -5.95% | 1.20% | 4.28% | 3.06% | -16.22% | -0.23% | 3.06% | 
5 | C=CC(=O)N1CCC[C@@H](n2nc(-c3ccc(Oc4ccccc4)cc3)c3c(N)ncnc32)C1 [ibrutinib] | 99.53% | -4.53% | 1.76% | 59.18% | 1.67% | 4.34% | 6.37% | 94.28% | 
